We go through 40 compounds from ChEMBL document CHEMBL4483862, “Open-source discovery of chemical leads for next-generation chemoprotective antimalarials” (2018).

As a reminder, the IC50 is the point on the concentration scale where inhibition reaches its midpoint. As a reminder, the IC90 is the concentration needed for an effect of 90%.

The test system of this test is Plasmodium berghei. Description: Luciferase/luciferin-expressing antifolate-resistant parasites were used to infect a culture of HepG2 cells that were pre-incubated with compounds. Infected hepatocytes emit light due to the luciferase reaction. Assay results are presented as the percent inhibition of light emission compared to control. […]. The class given is functional. Conditions: sporozoite; for IC90: read-out: LUCIFERASE INFECTION ASSAY - IC90.

Where [1] appears, read: read-out: LUCIFERASE INFECTION ASSAY - IC50.

Each structure is given as a SMILES string.

Turning to `OC(COc1ccc2cc(Br)ccc2c1)CN1CCCC1` (stereo not given), the 90% effect concentration (IC90) is greater than 9.42 µM. The IC50 (FFLUC_HILL_SLOPE 1.55, FFLUC_R_SQUARED 0.115, PBLUC_HILL_SLOPE 1.17, PBLUC_R_SQUARED 0.42, read-out: LUCIFERASE INFECTION ASSAY - IC50) came out at 4.73 µM.

`Fc1ccc(CSc2nnnn2-c2ccc3c(c2)OCO3)c(Cl)c1`: the 90% effect concentration (IC90) turned out to be 8.12 µM. For the same compound, under “HEPG2TOX_HILL_SLOPE 1.94, HEPG2TOX_R_SQUARED 0.929, PBLUC_HILL_SLOPE 1.23, PBLUC_R_SQUARED 0.52, read-out: LUCIFERASE INFECTION ASSAY - IC50”, the IC50 is 1.37 µM.

With `CCCNC(=O)C1(C)CCN(Cc2ccc3ccccc3c2Br)C1` (stereo not given), the IC90 was greater than 8.48 µM. Besides, the concentration for half-maximal inhibition (IC50) (PBLUC_HILL_SLOPE 5.63, PBLUC_R_SQUARED 0.42, read-out: LUCIFERASE INFECTION ASSAY - IC50) worked out at 5.79 µM.

As to `Cc1cc(=O)n2nc(CSc3ncc(-c4ccccc4)n3-c3c(C)cccc3C)sc2n1`, the 90% effect concentration (IC90) was determined as 5.16 µM. Under setting [1], the 50% inhibitory concentration (IC50) is 2.38 µM.

For `Cc1cc(C)c(S(=O)(=O)Nc2cc3c(C(=O)Nc4ccccc4)c(C)oc3c3ccccc23)c(C)c1`, the IC90 was greater than 10 µM. Moreover, the IC50 under setting [1] was greater than 10 µM.

On to `CCOC(=O)c1c(C)[nH]c(C(=O)COC(=O)c2nc(-c3ccccc3)n(-c3ccccc3)n2)c1C`, for which the IC90 was greater than 10 µM. Besides, under setting [1], the half-inhibitory concentration (IC50) was greater than 10 µM.

For the compound `O=C(N/N=C/c1c(-c2ccccc2)nc2sc3c(n12)CCCC3)c1ccccc1`, the concentration for an effect of 90% (IC90) came out at 0.858 µM. Besides, for the setting “FFLUC_HILL_SLOPE 0.805, FFLUC_R_SQUARED 0.757, PBLUC_HILL_SLOPE 1.27, PBLUC_R_SQUARED 0.855, read-out: LUCIFERASE INFECTION ASSAY - IC50”, the half-inhibitory concentration (IC50) worked out at 0.153 µM.

On to `O=c1c2cc(Br)cc(Br)c2nc(-c2ccccc2)n1-c1cc(C(F)(F)F)cc(C(F)(F)F)c1`, for which the IC90 is greater than 5.57 µM. Moreover, under setting [1], the IC50 was greater than 5.57 µM.

With `Cc1nnc(SCC(=O)Nc2ccc(Cl)cn2)n(N)c1=O`, the 90% effect concentration (IC90) is greater than 10 µM. Also, the 50% inhibitory concentration (IC50) under setting [1] is greater than 10 µM.

For `COC(=O)c1cccc(OC(=O)/C=C/c2ccc(-c3ccccc3)s2)c1`, the 90% effect concentration (IC90) was greater than 10 µM. Besides, under setting [1], the half-maximal inhibitory concentration (IC50) is greater than 10 µM.

For `COc1ccc(NC(=O)CN(C)c2nc(-c3cccnc3)nc3sc(C)c(C)c23)cc1`, the IC90 came out at 3.92 µM. Further, where the note is “PBLUC_HILL_SLOPE 1.86E+03, PBLUC_R_SQUARED 0.436, read-out: LUCIFERASE INFECTION ASSAY - IC50”, the concentration for half-maximal inhibition (IC50) amounted to 3.92 µM.

Take `CC(C)c1ccccc1NC(=O)COC(=O)C(C)(C)Oc1ccc(Cl)cc1`: the IC90 is greater than 10 µM. For the same compound, under setting [1], the IC50 was greater than 10 µM.

For `CCCn1c(C)cc(/C=C(\C#N)C(=O)Nc2ccc3c(c2)OCO3)c1C`, the IC90 is 2.3 µM. For the same compound, the IC50 (HEPG2TOX_HILL_SLOPE 1.46, HEPG2TOX_R_SQUARED 0.846, PBLUC_HILL_SLOPE 2.22, PBLUC_R_SQUARED 0.625, read-out: LUCIFERASE INFECTION ASSAY - IC50) is 0.857 µM.

On to `CC1CCN(Cc2csc(NC(=O)c3ccc4ncsc4c3)n2)CC1`, for which the IC90 is greater than 10 µM. For the same compound, for the setting “HEPG2TOX_HILL_SLOPE 0.129, HEPG2TOX_R_SQUARED 0.115, read-out: LUCIFERASE INFECTION ASSAY - IC50”, the concentration for half-maximal inhibition (IC50) is greater than 10 µM.

On to `Nc1c(NCCO)cc(NC2CCCCC2)c2c1C(=O)c1ccccc1C2=O`, for which the concentration for an effect of 90% (IC90) is greater than 8.7 µM. Further, the 50% inhibitory concentration (IC50) (FFLUC_HILL_SLOPE 12.9, FFLUC_R_SQUARED 0.405, PBLUC_HILL_SLOPE 2.49, PBLUC_R_SQUARED 0.563, read-out: LUCIFERASE INFECTION ASSAY - IC50) was greater than 8.7 µM.

Take `CCC(C)c1ccc(NC(=O)c2ccc[nH]c2=S)cc1` (stereo not given): the IC90 is greater than 10 µM. For the same compound, where the note is “FFLUC_HILL_SLOPE 16.3, FFLUC_R_SQUARED 0.684, PBLUC_HILL_SLOPE 0.824, PBLUC_R_SQUARED 0.804, read-out: LUCIFERASE INFECTION ASSAY - IC50”, the IC50 worked out at 7.03 µM.

With `Cc1ccccc1/N=C1\SCC(C)(C)N1C(=O)c1ccccc1OCc1ccccc1`, the IC90 is greater than 10 µM. For the same compound, under setting [1], the IC50 was greater than 10 µM.

`CC(C)(C)c1cc(NC(=O)CSc2ccc(Cl)cc2)c(C(N)=O)s1`: the IC90 was greater than 8.62 µM. Also, the 50% inhibitory concentration (IC50) (FFLUC_HILL_SLOPE 13.8, FFLUC_R_SQUARED 0.177, HEPG2TOX_HILL_SLOPE 8.22, HEPG2TOX_R_SQUARED 0.725, read-out: LUCIFERASE INFECTION ASSAY - IC50) was greater than 8.62 µM.

On to `COc1cc(OC)cc(-c2cn3c(-c4cccc(N(C)C)c4)cnc3cn2)c1`, for which the 90% effect concentration (IC90) was greater than 8.81 µM. Further, under “PBLUC_HILL_SLOPE 11.4, PBLUC_R_SQUARED 0.677, read-out: LUCIFERASE INFECTION ASSAY - IC50”, the half-inhibitory concentration (IC50) is 7.8 µM.

On to `O=C(OCc1csc(-c2ccccc2)n1)c1cc(O)c2ccccc2c1O`, for which the 90% effect concentration (IC90) is greater than 10 µM. In addition, the half-inhibitory concentration (IC50) (FFLUC_HILL_SLOPE 21.7, FFLUC_R_SQUARED 0.124, read-out: LUCIFERASE INFECTION ASSAY - IC50) was greater than 10 µM.

Regarding `CCCS(=O)(=O)c1cnc(C2COc3ccccc3O2)nc1N` (stereo not given), the IC90 amounted to 1.07 µM. Moreover, the IC50 (FFLUC_HILL_SLOPE 3.81, FFLUC_R_SQUARED 0.729, PBLUC_HILL_SLOPE 0.615, PBLUC_R_SQUARED 0.774, read-out: LUCIFERASE INFECTION ASSAY - IC50) was found to be 0.0301 µM.

For the compound `CCOc1cc(C(=O)N/N=C2/C(=O)N(C(C)C)c3ccccc32)cc(OCC)c1OCC`, the IC90 was greater than 10 µM. Further, the half-maximal inhibitory concentration (IC50) under setting [1] was greater than 10 µM.

For `Cc1ccc(N2C(=O)C=CC2=O)cc1N1C(=O)C=CC1=O`, the IC90 was greater than 11.7 µM. Also, the IC50 under setting [1] was determined as 7.78 µM.

Consider `Cn1ccc2cc(-c3cnc4cnc(-c5ccccc5Cl)cn34)ccc21`, for which the IC90 was found to be 0.043 µM. Further, the IC50 (HEPG2TOX_HILL_SLOPE 0.673, HEPG2TOX_R_SQUARED 0.619, PBLUC_HILL_SLOPE 2.33, PBLUC_R_SQUARED 0.732, read-out: LUCIFERASE INFECTION ASSAY - IC50) was 0.0168 µM.

On to `c1csc(-c2cn3c(-c4ccsc4)cnc3cn2)c1`, for which the concentration for an effect of 90% (IC90) was greater than 11.6 µM. In addition, the IC50 (PBLUC_HILL_SLOPE 10.9, PBLUC_R_SQUARED 0.0923, read-out: LUCIFERASE INFECTION ASSAY - IC50) is greater than 11.6 µM.

Turning to `Cc1ccc(Sc2ccc(/C=C/C(=O)c3ccc(Cl)c(Cl)c3Cl)cc2[N+](=O)[O-])cc1`, the concentration for an effect of 90% (IC90) is greater than 10 µM. Also, the concentration for half-maximal inhibition (IC50) under setting [1] was greater than 10 µM.

As for `CN(C)c1nc(N)nc(CN(Cc2nc(N)nc(N(C)C)n2)C23CC4CC(CC(C4)C2)C3)n1`, the IC90 stood at 0.149 µM. In addition, the IC50 (HEPG2TOX_HILL_SLOPE 0.693, HEPG2TOX_R_SQUARED 0.937, PBLUC_HILL_SLOPE 2.94, PBLUC_R_SQUARED 0.84, read-out: LUCIFERASE INFECTION ASSAY - IC50) is 0.0707 µM.

Regarding `CN(C)S(=O)(=O)c1cccc(NC(=O)c2ccc(-n3cnc4ccccc43)cc2)c1`, the IC90 was 6.32 µM. The IC50 (HEPG2TOX_HILL_SLOPE 0.179, HEPG2TOX_R_SQUARED 0.448, PBLUC_HILL_SLOPE 2.55, PBLUC_R_SQUARED 0.642, read-out: LUCIFERASE INFECTION ASSAY - IC50) is 2.67 µM.

`CCOc1ccc(/C=C/C(=O)C(C(N)=O)=C2SCCS2)cc1`: the IC90 was greater than 10 µM. In addition, the IC50 under setting [1] is greater than 10 µM.

Turning to `O=C(CSc1ccccc1C(=O)N(Cc1ccco1)Cc1cccs1)NC12CC3CC(CC(C3)C1)C2`, the IC90 is 7.68 µM. Besides, the IC50 (FFLUC_HILL_SLOPE 5.22, FFLUC_R_SQUARED 0.381, HEPG2TOX_HILL_SLOPE 38.7, HEPG2TOX_R_SQUARED 0.813, PBLUC_HILL_SLOPE 3.47, PBLUC_R_SQUARED 0.525, read-out: LUCIFERASE INFECTION ASSAY - IC50) was 4.08 µM.

Consider `Cc1ccc(-c2nnc(SCC(=O)N3c4ccccc4OCC3c3ccccc3)[nH]2)cc1` (stereo not given), for which the concentration for an effect of 90% (IC90) was greater than 10 µM. Further, under setting [1], the IC50 is greater than 10 µM.

With `NC(=O)c1c(NC(=O)NCc2ccncc2)sc2c1CCCC2`, the IC90 is greater than 9.99 µM. Also, the IC50 under setting [1] was greater than 9.99 µM.

On to `CC(=O)Nc1cccc(C(=O)Nn2cnc3ccccc3c2=O)c1`, for which the concentration for an effect of 90% (IC90) was greater than 10 µM. The IC50 under setting [1] was greater than 10 µM.

`CCC(Nc1nc(C(F)(F)F)nc2ccccc12)c1ccc(Br)cc1` (stereo not given): the IC90 was greater than 10 µM. The IC50 (PBLUC_HILL_SLOPE 5.54, PBLUC_R_SQUARED 0.0475, read-out: LUCIFERASE INFECTION ASSAY - IC50) was greater than 10 µM.

Take `CCn1c(SCC(=O)N2N=C(c3ccco3)CC2c2ccco2)nc2ccsc2c1=O` (stereo not given): the 90% effect concentration (IC90) was greater than 10 µM. The IC50 (FFLUC_HILL_SLOPE 1.6, FFLUC_R_SQUARED 0.281, read-out: LUCIFERASE INFECTION ASSAY - IC50) is greater than 10 µM.

In the case of `c1ccc(-c2cnc3sc(NCCc4ccncc4)nn23)cc1`, the IC90 was greater than 10.3 µM. The concentration for half-maximal inhibition (IC50) under setting [1] is greater than 10.3 µM.

For the compound `Cn1cc(S(=O)(=O)Nc2cccc(CN3C(=O)CNC3=O)c2)cc1C(N)=O`, the IC90 is greater than 10 µM. The IC50 under setting [1] is greater than 10 µM.

For `CC(=O)Nc1cccc(Nc2cc3c(cn2)ncn3CC2CC2)c1`, the IC90 was greater than 10 µM. Further, the IC50 (HEPG2TOX_HILL_SLOPE 2.64, HEPG2TOX_R_SQUARED 0.966, PBLUC_HILL_SLOPE 2.21, PBLUC_R_SQUARED 0.507, read-out: LUCIFERASE INFECTION ASSAY - IC50) was found to be 6.65 µM.

Take `COc1ccccc1C(=O)OC(c1ccc(NC(=O)c2ccc(OC(F)F)cc2)cc1)(C(F)(F)F)C(F)(F)F`: the IC90 worked out at 4.33 µM. In addition, the IC50 under setting [1] turned out to be 3.51 µM.

For the compound `Cc1nc(NCCCn2ccnc2)c2c(-c3cccs3)csc2n1`, the 90% effect concentration (IC90) was greater than 10 µM. The IC50 (PBLUC_HILL_SLOPE 2.38, PBLUC_R_SQUARED 0.267, read-out: LUCIFERASE INFECTION ASSAY - IC50) was 6.39 µM.
